Earlier results as cited in patent publication US10703773B2, “Glycosyl hesperetin and process for producing the same and uses thereof” (Hayashibara Co. Ltd., priority 2014, dated 2020).

Details: in water at ambient temperature

For COc1ccc([C@@H]2CC(=O)c3c(O)cc(O[C@@H]4O[C@H](CO[C@@H]5O[C@@H](C)[C@H](O)[C@@H](O)[C@H]5O)[C@@H](O)[C@H](O)[C@H]4O)cc3O2)cc1O [hesperidin], the Water solubility is listed as “about 0.002 w/v %”.
